This note sets out measurements from patent US20250302815A1, “PROTEIN TYROSINE PHOSPHATASE TARGETING LIGANDS” (CALICO LIFE SCIENCES LLC, priority 2021, published 2025).

Structures are written as SMILES. A value given as a limit tells only on which side of the number the result lay.

In one assay the target is T1, PTPN2 (B16F10.4 cells) (Mus musculus, UniProt Q06180).
T1 construct: HiBiT; host or cells: B16F10.4
T1 sequence (Q06180 1-406): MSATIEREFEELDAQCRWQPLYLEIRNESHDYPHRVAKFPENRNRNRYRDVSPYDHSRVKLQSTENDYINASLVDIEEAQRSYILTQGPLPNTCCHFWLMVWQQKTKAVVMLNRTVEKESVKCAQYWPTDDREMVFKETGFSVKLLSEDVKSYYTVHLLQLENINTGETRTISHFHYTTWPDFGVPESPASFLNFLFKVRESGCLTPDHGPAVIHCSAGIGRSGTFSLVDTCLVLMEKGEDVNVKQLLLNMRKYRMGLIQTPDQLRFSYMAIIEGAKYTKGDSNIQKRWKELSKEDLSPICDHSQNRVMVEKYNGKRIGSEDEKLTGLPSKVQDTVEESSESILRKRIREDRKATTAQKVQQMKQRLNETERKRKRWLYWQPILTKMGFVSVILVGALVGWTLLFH
In words: HiBiT Degradation B16F10.4 PTPN2. Format: cell-based. The settings on record: 24.0 hours.

Assay [1] concerns the target T2, PTPN2 (HiBIT-PTPN2 in 293T.109 cells) (Homo sapiens, UniProt P17706).
T2 construct: expressed in transfected cells; host or cells: 293T.109 (293T WT from ATCC)
T2 sequence (P17706 1-415): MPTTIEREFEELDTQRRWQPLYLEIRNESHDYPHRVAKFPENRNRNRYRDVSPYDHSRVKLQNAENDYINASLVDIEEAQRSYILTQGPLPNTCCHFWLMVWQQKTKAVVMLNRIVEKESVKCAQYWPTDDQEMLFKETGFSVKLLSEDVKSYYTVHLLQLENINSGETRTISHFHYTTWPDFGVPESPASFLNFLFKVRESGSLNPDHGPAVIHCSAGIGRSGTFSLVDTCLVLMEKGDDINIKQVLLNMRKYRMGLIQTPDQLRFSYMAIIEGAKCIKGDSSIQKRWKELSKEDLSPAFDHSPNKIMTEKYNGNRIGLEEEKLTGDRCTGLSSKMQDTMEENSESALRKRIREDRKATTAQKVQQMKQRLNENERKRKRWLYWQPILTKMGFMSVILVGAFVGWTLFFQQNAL
The assay is described as follows: HiBiT Degradation 293T.109 PTPN2 (Nano-Glo HiBiT Lytic Assay). It is filed as cell-based. The conditions noted are these: 24.0 hours. The source says:
Dulbecco's modified Eagle medium (DMEM) without phenol red and fetal bovine serum (FBS) were purchased from Gibco (Grand Island, NY, USA). Nano-Glo® HiBIT Lytic Assay System was purchased from Promega (Madison, WI, USA). 293T.109 (HiBIT-PTPN2) cell line was generated by ectopically expressing PTPN2 with N-terminal HiBIT fusion tag in 293T WT cell line purchased from ATCC (Manassas, VA, USA). Cell culture flasks and 384-well microplates were acquired from VWR (Radnor, PA, USA).
PTPN2 degradation was determined based on quantification of luminescent signal using Nano-Glo® HiBIT Lytic Assay kit. Test compounds were added to the 384-well plate from a top concentration of 10 μM with 11 points, half log titration in duplicates. 293T.109 cells were added into 384-well plates at a cell density of 5000 cells per well. The plates were kept at 37° C. with 5% CO2 for 24 hours. The cells treated in the absence of the test compound were the negative control and the cells without Nano-Glo® HiBIT Lytic reagent were the positive control. After 24-hour incubation, Nano-Glo® HiBiT Lytic Assay reagents were added to the cells. Luminescence was acquired on EnVision™ Multilabel Reader (PerkinElmer, Santa Clara, CA, USA).

One may read the DC50 as the concentration at which degradation of the target reaches its halfway point. A high value points to degradation only at high concentration. With `Cn1c(=O)n(C2CCC(=O)NC2=O)c2ccc(C3CN(C(=O)Nc4cccc(CS(=O)(=O)N5CC[C@H](Nc6cccc(-c7sc(C(=O)O)c(OCC(=O)O)c7Cl)c6)CC5(C)C)c4)CCC3F)cc21` (stereo partly drawn) [Example 212, 3-(carboxymethoxy)-4-chloro-5-[3-[[(4S)-1-[[3-[[3-[1-(2,6-dioxo-3-piperidyl)-3-methyl-2-oxo-benzimidazol-5-yl]-4-fluoro-piperidine-1-carbonyl]amino]phenyl]methylsulfonyl]-2,2-dimethyl-4-piperidyl]amino]phenyl]thiophene-2-carboxylic acid], the DC50 was in the range of 50 to 200 nM at PTPN2 (B16F10.4 cells) and 200 to 1000 nM in assay [1].
The like results for `CC1(C)C[C@@H](Nc2cccc(-c3sc(C(=O)O)c(OCC(=O)O)c3Cl)c2)CCN1S(=O)(=O)Cc1ccc(F)c(NC(=O)[C@H]2[C@@H]3CN(C(=O)CNc4cccc5c4CN(C4CCC(=O)NC4=O)C5=O)C[C@@H]32)c1` (stereo partly drawn) [Example 110, 3-(carboxymethoxy)-4-chloro-5-(3-(((4S)-1-((3-((1R,5S,6r)-3-((2-(2,6-dioxopiperidin-3-yl)-1-oxoisoindolin-4-yl)glycyl)-3-azabicyclo[3.1.0]hexane-6-carboxamido)-4-fluorobenzyl)sulfonyl)-2,2-dimethylpiperidin-4-yl)amino)phenyl)thiophene-2-carboxylic acid] were, in that order, 200 to 1000 nM and 50 to 200 nM.
Regarding `O=C(O)COc1c(C(=O)O)sc(-c2cccc(NC3CCN(S(=O)(=O)Cc4cccc(NC(=O)C5CCN(C(=O)CNc6cccc7c6CN(C6CCC(=O)NC6=O)C7=O)CC5)c4F)CC3)c2)c1Cl` (centres unmarked) [Example 73, 3-(carboxymethoxy)-4-chloro-5-(3-((1-((3-(1-((2-(2,6-dioxopiperidin-3-yl)-1-oxoisoindolin-4-yl)glycyl)piperidine-4-carboxamido)-2-fluorobenzyl)sulfonyl)piperidin-4-yl)amino)phenyl)thiophene-2-carboxylic acid], the DC50 at PTPN2 (B16F10.4 cells) is ≥ 1000 nM; in assay [1], 50 to 200 nM.
For `CC1(C)C[C@H](Nc2cccc(-c3sc(C(=O)O)c(OCC(=O)O)c3Cl)c2)CCN1S(=O)(=O)Cc1ccc(F)c(NC(=O)C2CN(C(=O)CNc3cccc4c3CN(C3CCC(=O)NC3=O)C4=O)C2)c1` (some centres unmarked) [Example 108], in that order: ≥ 1000 nM and 50 to 200 nM.
The like results for `CC1(C)C[C@@H](Nc2cccc(-c3sc(C(=O)O)c(OCC(=O)O)c3Cl)c2)CCN1S(=O)(=O)Cc1cccc(NC(=O)C2CCN(C(=O)CNc3ccc4c(c3)C(=O)N(C3CCC(=O)NC3=O)C4=O)CC2)c1` (stereo partly drawn) [Example 43, 3-(carboxymethoxy)-4-chloro-5-[3-[[(4S)-1-[[3-[[1-[2-[[2-(2,6-dioxo-3-piperidyl)-1,3-dioxo-isoindolin-5-yl]amino]acetyl]piperidine-4-carbonyl]amino]phenyl]methylsulfonyl]-2,2-dimethyl-4-piperidyl]amino]phenyl]thiophene-2-carboxylic acid] were, in that order, ≥ 1000 nM and 50 to 200 nM.
In the case of `O=C(O)COc1c(C(=O)O)sc(-c2cccc(N[C@@H]3CCN(S(=O)(=O)Cc4cccc(NC(=O)N5CCC(c6ccc7c8c(cccc68)C(=O)N7C6CCC(=O)NC6=O)CC5)c4)C4(CC4)C3)c2)c1Cl` (stereo partly drawn) [Example 231, 3-(carboxymethoxy)-4-chloro-5-(3-(((7R)-4-((3-(4-(1-(2,6-dioxopiperidin-3-yl)-2-oxo-1,2-dihydrobenzo[cd]indol-6-yl)piperidine-1-carboxamido)benzyl)sulfonyl)-4-azaspiro[2.5]octan-7-yl)amino)phenyl)thiophene-2-carboxylic acid], the DC50 was < 50 nM on PTPN2 (B16F10.4 cells) and 50 to 200 nM in assay [1].
The like results for `Cn1c(=O)n(C2CCC(=O)NC2=O)c2ccc(NC3CN(C(=O)Nc4cccc(CS(=O)(=O)N5CC[C@H](Nc6cccc(-c7sc(C(=O)O)c(OCC(=O)O)c7Cl)c6)CC5(C)C)c4)C3)cc21` (some centres unmarked) [Example 79] were, in that order, 50 to 200 nM and < 50 nM.
The like results for `Cn1c(=O)n(C2CCC(=O)NC2=O)c2ccc(C3CCN(C(=O)Nc4cccc(CS(=O)(=O)N5CCC(Nc6cc(-c7sc(C(=O)O)c(OCC(=O)O)c7Cl)ccc6F)CC5)c4)CC3)cc21` (centres unmarked) [Example 121, 3-(carboxymethoxy)-4-chloro-5-[3-[[1-[[3-[[4-[1-(2,6-dioxo-3-piperidyl)-3-methyl-2-oxo-benzimidazol-5-yl]piperidine-1-carbonyl]amino]phenyl]methylsulfonyl]-4-piperidyl]amino]-4-fluoro-phenyl]thiophene-2-carboxylic acid] were, in that order, 50 to 200 nM and 200 to 1000 nM.
The like results for `CC1(C)C[C@@H](Nc2cccc(-c3sc(C(=O)O)c(OCC(=O)O)c3Cl)c2)CCN1S(=O)(=O)Cc1cccc(NC(=O)N2CCC(Cc3ccc4c5c(cccc35)C(=O)N4C3CCC(=O)NC3=O)CC2)c1` (stereo partly drawn) [Example 158, 3-(carboxymethoxy)-4-chloro-5-(3-(((4S)-1-((3-(4-((1-(2,6-dioxopiperidin-3-yl)-2-oxo-1,2-dihydrobenzo[cd]indol-6-yl)methyl)piperidine-1-carboxamido)benzyl)sulfonyl)-2,2-dimethylpiperidin-4-yl)amino)phenyl)thiophene-2-carboxylic acid] were, in that order, < 50 nM and 50 to 200 nM.
Consider `CC1(C)C[C@H](Nc2cccc(-c3sc(C(=O)O)c(OCC(=O)O)c3Cl)c2)CCN1S(=O)(=O)Cc1cc(NC(=O)N2CCC(c3ccc4c5c(cccc35)C(=O)N4C3CCC(=O)NC3=O)CC2)ccc1F` (some centres unmarked) [Example 162], for which the DC50 on PTPN2 (B16F10.4 cells) was < 50 nM; in assay [1] it was 200 to 1000 nM.
For `Cn1c(=O)n(C2CCC(=O)NC2=O)c2ccc(OC3CN(C(=O)Nc4cccc(CS(=O)(=O)N5CC[C@H](Nc6cccc(-c7sc(C(=O)O)c(OCC(=O)O)c7Cl)c6)CC5(C)C)c4)C3)cc21` (some centres unmarked) [Example 116], in that order: 50 to 200 nM and 50 to 200 nM.
`Cn1c(=O)n(C2CCC(=O)NC2=O)c2ccc(C3CCN(CC(=O)Nc4cccc(CS(=O)(=O)N5CCC(Nc6cccc(-c7sc(C(=O)O)c(OCC(=O)O)c7Cl)c6)CC5(C)C)c4)CC3)cc21` [Example 69, 3-(carboxymethoxy)-4-chloro-5-[3-[[(4S)-1-[[3-[2-[4-[1-(2,6-dioxo-3-piperidyl)-3-methyl-2-oxo-benzimidazol-S-yl]-1-piperidyl]acetyl]amino]phenyl]methylsulfonyl]-2,2-dimethyl-4-piperidyl]amino]phenyl]thiophene-2-carboxylic acid]: the DC50 on PTPN2 (B16F10.4 cells) was 50 to 200 nM; in assay [1], < 50 nM.
The like results for `CC1(C)C[C@@H](Nc2cccc(-c3sc(C(=O)O)c(OCC(=O)O)c3Cl)c2)CCN1S(=O)(=O)Cc1cccc(NC(=O)N2CCC(c3ccc4c(c3)oc(=O)n4C3CCC(=O)NC3=O)CC2)c1` (stereo partly drawn) [Example 68, 3-(carboxymethoxy)-4-chloro-5-[3-[[(4S)-1-[[3-[[4-[3-(2,6-dioxo-3-piperidyl)-2-oxo-1,3-benzoxazol-6-yl]piperidine-1-carbonyl]amino]phenyl]methylsulfonyl]-2,2-dimethyl-4-piperidyl]amino]phenyl]thiophene-2-carboxylic acid] were, in that order, 50 to 200 nM and 50 to 200 nM.
